Assay results as given in PubChem BioAssay AID1259411 (Chemical Carcinogenesis Research Information System (CCRIS), 2018).
The source made the active and inactive calls. The rule behind the calls is not given here.

Test system: rodent carcinogenicity bioassays, tumor incidence
Experiment: CCRIS carcinogenicity studies
Summary of the method: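 NCI-built, expert-reviewed records of carcinogenicity and related test outcomes (mutagenicity, tumor promotion/inhibition) compiled from published and report sources, historical span 1985-2011, not updated.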

## COc1cc2c(c3oc(=O)c4c(c13)CCC4=O)[C@@H]1C=CO[C@@H]1O2
Species: FISH, Strain/Sex: COHO SALMON, Route: DIET, Dose: 0, 40 PPB IN DIET FOR 4 WK (STUDY DURATION: 12 MO)
  carcinogen call: inactive; negative
Species: FISH, Strain/Sex: COHO SALMON, Route: DIET, Dose: 0, 5000 PPB FOR 3 WK (STUDY DURATION: 12 MO)
  carcinogen call: inactive; negative
Species: FISH, Strain/Sex: COHO SALMON, Route: IMMERSION, Dose: 0, 0.5 PPM AQUEOUS SOLUTION FOR 30 MIN EXPOSURE OF EMBRYOS 4-5 D BEFORE HATCHING (STUDY DURATION: 12 MO)
  carcinogen call: inactive; negative
Species: FISH, Strain/Sex: MT. SHASTA RAINBOW TROUT, Route: IMMERSION, Dose: 0, 0.5 PPM AQUEOUS SOLUTION FOR 15 MIN EXPOSURE OF EMBRYOS 4-5 D BEFORE HATCHING (STUDY DURATION: 12 MO), Tumor Site: Type of Lesion: LIVER: HEPATOCELLULAR CARCINOMA
  carcinogen call: active; positive
Species: FISH, Strain/Sex: MT. SHASTA RAINBOW TROUT, Route: ORAL, Dose: 0, 20 PPB IN DIET FOR 4 WK (STUDY DURATION: 12 MO), Tumor Site: Type of Lesion: LIVER: HEPATOCELLULAR CARCINOMA
  carcinogen call: active; positive
Species: FISH, Strain/Sex: RAINBOW TROUT, Route: ORAL, Dose: 0, 1.5, 7.5 UG/DIET FOR 5.5 MO (STUDY DURATION: 5.5 MO), Dose: 0, 1.5, 7.5 UG/DIET FOR 5.5 MO (STUDY DURATION: 5.5 MO), Tumor Site: Type of Lesion: LIVER: HEPATOMA
  carcinogen call: active; positive
Species: FISH, Strain/Sex: RAINBOW, Route: DIET, Dose: 0, 6 PPB FOR UP TO 1 YR, Tumor Site: Type of Lesion: LIVER: HEPATOCELLULAR CARCINOMA
  carcinogen call: active; positive
Species: FISH, Strain/Sex: SHASTA RAINBOW TROUT/MALE, FEMALE, Route: IMMERSION, Dose: 0, 0.01, 0.025, 0.05, 0.1, 0.25, 0.5 PPM SOLUTION IN WATER FOR 1 HR EXPOSURE OF EMBRYOS (STUDY DURATION: 13 MO), Dose: 0, 0.01, 0.025, 0.05, 0.1, 0.25, 0.5 PPM SOLUTION IN WATER FOR 1 HR EXPOSURE OF EMBRYOS (STUDY DURATION: 13 MO), Tumor Site: Type of Lesion: LIVER: TUMOR
  carcinogen call: active; positive
Species: FISH, Strain/Sex: SHASTA RAINBOW TROUT/MALE, FEMALE, Route: ORAL, Dose: 0, 4, 8, 16, 32, 64 PPB IN DIET FOR 2 WK FOLLOWED BY CONTROL DIET FOR THE DURATION OF STUDY (STUDY DURATION: 9 MO), Dose: 0, 4, 8, 16, 32, 64 PPB IN DIET FOR 2 WK FOLLOWED BY CONTROL DIET FOR THE DURATION OF STUDY (STUDY DURATION: 9 MO), Tumor Site: Type of Lesion: LIVER: TUMOR
  carcinogen call: active; positive
Species: HUMAN, Route: ORAL, Tumor Site: Type of Lesion: LIVER
  carcinogen call: active; positive
Species: MONKEY, Strain/Sex: AFRICAN GREEN/MALE,FEMALE, Route: INTRAPERITONEAL, Dose: 99-134 MG TOTAL DOSE, 1/WK FOR AT LEAST 2 YR, Tumor Site: Type of Lesion: LIVER: CARCINOMA, HEMANGIOENDOTHELIAL SARCOMA, GALL BLADDER (BILE DUCT): ADENOCARCINOMA, PANCREAS: HEMANGIOENDOTHELIAL S, Tumor Site: Type of Lesion: LIVER: CARCINOMA, HEMANGIOENDOTHELIAL SARCOMA, GALL BLADDER (BILE DUCT): ADENOCARCINOMA, PANCREAS: HEMANGIOENDOTHELIAL S
  carcinogen call: active; positive
Species: MONKEY, Strain/Sex: AFRICAN GREEN/MALE,FEMALE, Route: ORAL, Dose: 99-134 MG TOTAL DOSE, 1/WK FOR AT LEAST 2 YR, Tumor Site: Type of Lesion: LIVER: CARCINOMA, HEMANGIOENDOTHELIAL SARCOMA, GALL BLADDER (BILE DUCT): ADENOCARCINOMA, PANCREAS: HEMANGIOENDOTHELIAL S, Tumor Site: Type of Lesion: LIVER: CARCINOMA, HEMANGIOENDOTHELIAL SARCOMA, GALL BLADDER (BILE DUCT): ADENOCARCINOMA, PANCREAS: HEMANGIOENDOTHELIAL S
  carcinogen call: active; positive
Species: MONKEY, Strain/Sex: CYNOMOLGUS/MALE,FEMALE, Route: INTRAPERITONEAL, Dose: 99-134 MG TOTAL DOSE, 1/WK FOR AT LEAST 2 YR, Tumor Site: Type of Lesion: LIVER: CARCINOMA, HEMANGIOENDOTHELIAL SARCOMA, GALL BLADDER (BILE DUCT): ADENOCARCINOMA, PANCREAS: HEMANGIOENDOTHELIAL S, Tumor Site: Type of Lesion: LIVER: CARCINOMA, HEMANGIOENDOTHELIAL SARCOMA, GALL BLADDER (BILE DUCT): ADENOCARCINOMA, PANCREAS: HEMANGIOENDOTHELIAL S
  carcinogen call: active; positive
Species: MONKEY, Strain/Sex: CYNOMOLGUS/MALE,FEMALE, Route: ORAL, Dose: 99-134 MG TOTAL DOSE, 1/WK FOR AT LEAST 2 YR, Tumor Site: Type of Lesion: LIVER: CARCINOMA, HEMANGIOENDOTHELIAL SARCOMA, GALL BLADDER (BILE DUCT): ADENOCARCINOMA, PANCREAS: HEMANGIOENDOTHELIAL S, Tumor Site: Type of Lesion: LIVER: CARCINOMA, HEMANGIOENDOTHELIAL SARCOMA, GALL BLADDER (BILE DUCT): ADENOCARCINOMA, PANCREAS: HEMANGIOENDOTHELIAL S
  carcinogen call: active; positive
Species: MONKEY, Strain/Sex: RHESUS/MALE,FEMALE, Route: INTRAPERITONEAL, Dose: 99-134 MG TOTAL DOSE, 1/WK FOR AT LEAST 2 YR, Tumor Site: Type of Lesion: LIVER: CARCINOMA, HEMANGIOENDOTHELIAL SARCOMA, GALL BLADDER (BILE DUCT): ADENOCARCINOMA, PANCREAS: HEMANGIOENDOTHELIAL S, Tumor Site: Type of Lesion: LIVER: CARCINOMA, HEMANGIOENDOTHELIAL SARCOMA, GALL BLADDER (BILE DUCT): ADENOCARCINOMA, PANCREAS: HEMANGIOENDOTHELIAL S
  carcinogen call: active; positive
Species: MONKEY, Strain/Sex: RHESUS/MALE,FEMALE, Route: ORAL, Dose: 99-134 MG TOTAL DOSE, 1/WK FOR AT LEAST 2 YR, Tumor Site: Type of Lesion: LIVER: CARCINOMA, HEMANGIOENDOTHELIAL SARCOMA, GALL BLADDER (BILE DUCT): ADENOCARCINOMA, PANCREAS: HEMANGIOENDOTHELIAL S, Tumor Site: Type of Lesion: LIVER: CARCINOMA, HEMANGIOENDOTHELIAL SARCOMA, GALL BLADDER (BILE DUCT): ADENOCARCINOMA, PANCREAS: HEMANGIOENDOTHELIAL S
  carcinogen call: active; positive
Species: MOUSE, Route: INTRAPERITONEAL, Tumor Site: Type of Lesion: LIVER
  carcinogen call: active; positive
Species: MOUSE, Route: INTRAPERITONEAL, Tumor Site: Type of Lesion: LUNG
  carcinogen call: active; positive
Species: MOUSE, Strain/Sex: DDK/FEMALE, Route: TRANSPLACENTAL, Dose: 0, 20, 40, 80, 120 MG/KG ADMINISTERED INTRAPERITONEALLY TO MOTHERS ON DAY 14 OF GESTATION AND OFFSPRING OBSERVED FOR 12, Dose: 0, 20, 40, 80, 120 MG/KG ADMINISTERED INTRAPERITONEALLY TO MOTHERS ON DAY 14 OF GESTATION AND OFFSPRING OBSERVED FOR 12
  carcinogen call: inactive; negative
Species: MOUSE, Strain/Sex: DDK/FEMALE, Route: TRANSPLACENTAL, Dose: 0, 40 MG/KG ADMINISTERED INTRAPERITONEALLY TO MOTHERS ON DAY 14 OF GESTATION AND OFFSPRING OBSERVED FOR 6 MO AFTER BIRTH
  carcinogen call: inactive; negative
Species: MOUSE, Strain/Sex: DDK/MALE, Route: TRANSPLACENTAL, Dose: 0, 20, 40, 80, 120 MG/KG ADMINISTERED INTRAPERITONEALLY TO MOTHERS ON DAY 14 OF GESTATION AND OFFSPRING OBSERVED FOR 12, Dose: 0, 20, 40, 80, 120 MG/KG ADMINISTERED INTRAPERITONEALLY TO MOTHERS ON DAY 14 OF GESTATION AND OFFSPRING OBSERVED FOR 12, Tumor Site: Type of Lesion: LIVER: TUMOR
  carcinogen call: active; positive
Species: MOUSE, Strain/Sex: DDK/MALE, Route: TRANSPLACENTAL, Dose: 0, 40 MG/KG ADMINISTERED INTRAPERITONEALLY TO MOTHERS ON DAY 14 OF GESTATION AND OFFSPRING OBSERVED FOR 6 MO AFTER BIRTH, Tumor Site: Type of Lesion: LIVER: TUMOR
  carcinogen call: active; positive
Species: RAT, Route: INTRAPERITONEAL, ORAL, Tumor Site: Type of Lesion: LIVER
  carcinogen call: active; positive
Species: RAT, Strain/Sex: F344/MALE, Route: ORAL, Dose: 0, 50 PPB IN AGAR BASED SEMISYNTHETIC DIET FOR STUDY DURATION (STUDY DURATION: 17 MO), Tumor Site: Type of Lesion: LIVER: HEPATOCELLULAR CARCINOMA
  carcinogen call: active; positive
Species: RAT, Strain/Sex: F344/MALE, Route: ORAL, Dose: 50 PPB IN DIET 2/WK FOR 12 MO, Tumor Site: Type of Lesion: LIVER: HEPATOCELLULAR CARCINOMA
  carcinogen call: active; positive
Species: RAT, Strain/Sex: SPRAGUE-DAWLEY, Route: DIET, Dose: 0, 25 UG/D FOR 15 DOSES, Tumor Site: Type of Lesion: LIVER: HEPATOCELLULAR CARCINOMA
  carcinogen call: active; positive
Species: TROUT, Strain/Sex: MT. SHASTA RAINBOW, Route: ORAL, Dose: 4 PPB IN DIET FOR 12 MO, Tumor Site: Type of Lesion: LIVER: HEPATOMA
  carcinogen call: active; positive
Species: TROUT, Strain/Sex: MT. SHASTA RAINBOW, Route: ORAL, Dose: 20 PPB IN DIET FOR 12 MO, Tumor Site: Type of Lesion: LIVER: HEPATOCELLULAR CARCINOMA
  carcinogen call: active; positive
